We go through four compounds from patent publication US20060159735A1, “Method of reclaiming drug compound from liposomal drug manufacturing stream” (priority 2005, published 2006).

What all share (format): physicochemical
Series [1] is described as follows: Partitioning of HSPC and cholesterol dispersions into chloroform. To be noted: 1:3 CHCl3:Aq volume ratio, HPLC; for extraction efficiency with chloroform: 0.1 mg/mL cholesterol:HSPC dispersion. As for the experimental part:
Concentrations of 1 mg/mL and 0.1 mg/mL of the 2:1 molar ratio HSPC:cholesterol spray dried mix dispersions were produced. Then the mixes were extracted with chloroform and varying chloroform:aqueous ratios at 1:3, 1:1 and 3:1. […] The other ratios produced milky emulsions in the aqueous phase.
HSPC consists of two main components: PSPC (1-palmitoyl-2-stearoyl-sn-glyero-3-phosphocholine) and DSPC (1,2-distearoyl-sn-glycero-3-phosphocholine). […] For the 0.1 mg/mL dispersion the extraction was less efficient; being ˜95% for cholesterol, ˜63% for PSPC and ˜24% for DSPC.

The nature of series [2]: Partitioning of HSPC and cholesterol into chloroform in the presence of OSI-7904. Conditions: for retained in the aqueous phase: first extraction, 17 mg/mL OSI-7904 with ~0.5 mg/mL HSPC:cholesterol mix, 1:3 CHCl3:Aq, shaking 1 hour; for amounts retained in the aqueous phase: second extraction with chloroform of the aqueous phase. As for the experimental part:
A 17 mg/mL OSI-7904 solution containing ˜0.5 mg/mL, 2:1 molar ratio HSPC:cholesterol mix was produced and extracted by mechanical shaking for 1 hour with chloroform at the 1:3 (CHCl3:Aq) ratio. Before partition the aqueous phase was hazy and yellow in color. After extraction the upper aqueous phase was clear and yellow.
The upper aqueous phase was analyzed for HSPC, cholesterol and OSI-7904. Approximately 94% of OSI-7904 was retained in the aqueous phase and approximately 2%, 8% and 8% retained of cholesterol, DSPC and PSPC respectively. This aqueous phase was extracted a second time with chloroform. The amounts retained in the aqueous phase for PSPC, DSPC and cholesterol were approximately 65%, 100% and 67% respectively for this second extraction.

Series [3] can be described thus: Potentiometric titration of OSI-7904 (Sirius Glpka autotitrator), with and without chloroform; solubility. The text has this: The ability of OSI-7904 to partition into chloroform as a function of pH was studied using a Sirius Glpka autotitrator. Attempts were first made to determine the pKas of the OSI-7904 drug substance using the Sirius autotitrator, since these values are required when determining the partition coefficients by potentiometric titration. […] It is usual practice, with a compound of low solubility, to titrate the compound with various amounts of cosolvent present to determine apparent pKas and then perform an extrapolation back to 100% aqueous to calculate the true thermodynamic pKa. However, even with cosolvent (methanol) present, precipitation of the drug was still a problem and reproducible data sets were not obtained. […] As a result, extraction of OSI-7904 with chloroform is not a practical proposition since large volumes of chloroform would be required to solubilise the drug.
In this case, the Bjerrum plot is for the titration of 10 mL of 0.33 mM OSI-7904 aqueous solution in the presence of 5 mL chloroform. Titration started at low pH. The sharp change in slope at pH˜4.5 and lack of symmetry in the curve is indicative of undissolved compound present which then dissolves as the pH is increased.

The nature of series [4]: Chloroform extraction of OSI-7904 solution with trace (saturated solution) HSPC and cholesterol. To be noted: 1.2 mg/mL OSI-7904, trace HSPC and cholesterol; 1:3 CHCl3:Aq. An excerpt: The work above had been carried out with dispersions of solid HSPC:cholesterol. It was thought that the actual permeate would only contain materials in free solution. A better model for this was considered to be saturating some water with the HSPC:cholesterol mix, filtering out the solid and working with this clarified solution. A saturated solution prepared in this way typically contained only traces of cholesterol and HSPC. It was noticed however that on one occasion when the dispersion of HSPC:cholesterol in water had been stirred continuously for approximately four days, the filtrate was opalescent and not clear and the levels of the HSPC and cholesterol were much higher. It was thought the most likely explanation for this was that initially multilamellar liposomes were formed and these were filtered out leaving only HSPC and cholesterol that are in free solution or in micelles. On extending mixing, the multilamellar liposomes are broken down to smaller particles and these are able to pass through the pores of the filter.
A 1.2 mg/mL solution of OSI-7904 was prepared containing trace levels of HSPC and cholesterol in solution (no solid present). This was extracted with chloroform in the 1:3 ratio (8.8 mL:26.5 mL, CHCl3:Aq) by manually shaking for 1 min. […] The aqueous phase was filtered through a 0.45 μm aperture filter and analyzed for OSI-7904, cholesterol and HSPC by HPLC. […]

For the compound `CCCCCCCCCCCCCCCCCC(=O)OC[C@H](COP(=O)([O-])OCC[N+](C)(C)C)OC(=O)CCCCCCCCCCCCCCCCC` [DSPC, 1,2-distearoyl-sn-glycero-3-phosphocholine], the “extraction efficiency with chloroform” value in series [1] is approximately 24%. Further, in series [2], the “retained in the aqueous phase” value was approximately 8% and the “amounts retained in the aqueous phase” value is approximately 100%.

Broadly, the solubility is the concentration that dissolves in the medium under given conditions. As to `Cc1nc2ccc3ccc(CNc4ccc5c(c4)CN([C@@H](CCC(=O)O)C(=O)O)C5=O)cc3c2c(=O)[nH]1` [OSI-7904], the “solubility in aqueous media” value in series [3] (at low pHs) is “very insoluble”. Further, the solubility in chloroform entry in series [3] (even at low pH, titration in presence of chloroform) is reported as “very low”. Also, the solubility in series [3] (with aqueous solution present during titration, organic solvent or mixture, from Bjerrum plot, titration of 10 mL 0.33 mM aqueous solution in presence of 5 mL chloroform) was less than 0.4 mg/mL. Also, in series [2], the “retained in the aqueous phase” value was “Approximately 94%”.

Take `CCCCCCCCCCCCCCCCCC(=O)O[C@H](COC(=O)CCCCCCCCCCCCCCC)COP(=O)([O-])OCC[N+](C)(C)C` [PSPC, 1-palmitoyl-2-stearoyl-sn-glyero-3-phosphocholine]: in series [1], the “extraction efficiency with chloroform” value is on record as approximately 63%. Besides, in series [2], the “retained in the aqueous phase” value is recorded as approximately 8% and the “amounts retained in the aqueous phase” value is “approximately 65%”.

Turning to `CC(C)CCC[C@@H](C)[C@H]1CC[C@H]2[C@@H]3CC=C4C[C@@H](O)CC[C@]4(C)[C@H]3CC[C@]12C` [cholesterol], in series [4], the “change in concentration in the aqueous phase after extraction with chloroform” value is “no decrease”. For the same compound, the “extraction efficiency with chloroform” value in series [1] is approximately 95%. Further, the “levels after extraction with chloroform” value in series [1] (1 mg/mL cholesterol:HSPC dispersion) is reported as “undetectable”. Besides, in series [2], the “retained in the aqueous phase” value is listed as “approximately 2%” and the “amounts retained in the aqueous phase” value is listed as approximately 67%.
